These results are taken from patent US20250113823A1, “Arthropod Control Compositions” (priority 2022, published 2025).

In assay [1] the test system is Aedes aegypti. Briefly: Double (dual) chamber assay, spatial repellence. Format: in vivo. The protocol:
FIG. 1: Percentage of mosquitoes Aedes aegypti escaping over time the chamber treated with a stimulus. The four stimuli were the solvent propan-1,2-diol (grey triangles and dotted line), N,N-diethyl-meta-toluamide (medium grey diamonds), 2,6-dimethoxy-4-methylphenol (light gray squares) and 1,2,3-trimethoxy-5-propylbenzene (black circles). Each stimulus was injected during 40 min thanks to a forced evaporation system in the treated chamber containing the mosquitoes, causing their movement toward the untreated refuge chamber. Each point represents the mean number of mosquitoes in the untreated chamber (n=57, 6, 4 and 4 respectively)±SD at 10 min intervals.
The goal of this assay was to reproduce at a smaller scale the validation test for spatial repellent as described in WHO (2013; ISBN 978 92 4 150502 4).
The assay consists of a transparent cage (1200×755×700 mm; ˜0.63 m^3) covered by white paper. This cage is divided in two chambers of equal dimensions by a plasticized paper wall with square opening (200×200 mm) situated in the middle of the wall. At the beginning of the experiment, about 40 two-weeks old female Aedes aegypti mosquitoes are placed in the right chambers. Once the mosquitoes are settled inside this chamber (>5 min), the door between the chambers is opened. Then the stimulus is introduced into the mosquito chamber through a L-shape Teflon tube (40 mm) placed in the middle of the right Plexiglas wall. The stimulus is dispensed thanks to a Forced Evaporation System (Chappuis et al, 2015, DOI: 10.1021/acs.est.5b00692) at a rate of 0.1 mL/min in a nitrogen flow of 1 L/min, blended in a humid air flow of 9L/min before being carried to the L-shape Teflon tube. An air sucking system (˜150 L/min) is placed above the wall opening, between the two chambers (100 mm Ø), preventing the untreated chamber from being contaminated by the stimulus and limiting the stimulus accumulation in the treated chamber. […] Ten, 20, 30 and 40 minutes after the start of the stimulus injection, the number of mosquitoes that have moved to the untreated chamber is manually counted.

The subject of assay [2] is Ixodes ricinus. Briefly: Warm Plate assay, tick repellence. The settings on record: Ixodes ricinus, read-out: Percentage of repellence of ticks Ixodes ricinus on the warm plate.
Assay [3] deals with Aedes aegypti. Briefly: Warm Body assay, mosquito landings on treated warm body. Format: in vivo. The note with it: Aedes aegypti, read-out: Percentage of repellence of mosquitoes Aedes aegypti landing on the warm body. The essentials: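 Compounds in ethanol (100 μL, various concentrations) were applied to a sandblasted glass dish covering the warm body (28.3 cm^2), with ethanol as control. Landings were counted automatically from 30 non-blood-fed, sugar-fed Aedes aegypti Rockefeller females aged 5–10 days, under 150 lux.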

The subject of assay [4] is Aedes aegypti. Briefly: Free flying room assay, spatial repellence with human volunteer. Format: in vivo. From the text: The goal of this large-scale test is to assess the propensity of stimulus released in the air to protect a human volunteer by limiting the mosquito presence in a protected space and the number of landing/biting. The protocol used to carry the test is following the guidelines indicated in WHO (2013; ISBN 978 92 4 150502 4).
A group of 50 Aedes aegypti female mosquitoes were introduced in one chamber of 25 m^3 one hour before the test started. The product was applied in the other chamber of 25 m^3 (“treated chamber”) and let evaporate for 30 minutes. The test started when the window separating the two chambers was opened in a tilt-on manner for another 30 minutes. Twenty minutes after the window was opened, a volunteer entered in the “treated chamber” and sat down for 10 minutes, exposing the forearm for the last 3 minutes to determine the probing activity (Protective Efficacy). Then, the connecting window was closed and the number of mosquitoes in each of the chambers was counted (Spatial Repellency). The negative controls were carried out following the same procedure but without the application of the stimulus. Three replicates of each treatment and of the negative control were conducted with three different volunteers.

The structures appear in SMILES notation.

Turning to `CCN(CC)C(=O)c1cccc(C)c1` [DEET, N,N-diethyl-meta-toluamide, reference compound], the “movement of mosquitoes towards the refuge chamber” value in assay [1] (after 40 min of injection in the treated chamber) is on record as 16.2%±7.3%.
In the case of `COc1cc(C)cc(OC)c1O` [compound 1537, 2,6-dimethoxy-4-methylphenol], the values for the pest or weed control at 400 µg/mL in assay [2] and in assay [3] (0.4 mg/mL (Table 2)) were 16.7% and 89%, respectively. Moreover, the pest or weed control at 2000 µg/mL in assay [2] was 58.3%; in assay [3] (2 mg/mL (Table 2)) it was 100%. The pest or weed control at 10000 µg/mL in assay [2] amounted to 72.7%; in assay [3] (10 mg/mL (Table 2)), 100%. The “plateau of mosquitoes moved to the untreated chamber” value in assay [1] (after 30 min of injection) is roughly 42%. In addition, the pest or weed control at 3.2 µg/mL in assay [3] (0.0032 mg/mL (Table 2)) is 0%. The pest or weed control at 16 µg/mL in assay [3] (0.016 mg/mL (Table 2)) was determined as 35%. The pest or weed control at 35.7 µg/mL in assay [3] (0.0357 mg/mL (Table 2)) turned out to be 36%. The pest or weed control at 80 µg/mL in assay [3] (0.08 mg/mL (Table 2)) was found to be 40%. In assay [3] (0.178 mg/mL (Table 2)), the pest or weed control at 178 µg/mL came to 62%. Besides, in assay [3] (0.89 mg/mL (Table 2)), the pest or weed control at 890 µg/mL was determined as 84%. Moreover, in assay [4] (in 3 minutes, negative control 60.7±2.5 landings), the “mosquitoes landed on the volunteer” value was found to be 14.7±2.5. For the same compound, the “Spatial Repellence” value in assay [4] (large scale assay, 25 m3 chambers, compound released in the air) came to 64.3 ± 3.4%. The Protective efficacy in assay [4] (large scale assay, probing on volunteer forearm, 3 minutes) worked out at 75.8 ± 3.9%. Besides, the “mosquito entered the treated chamber” value in assay [4] (negative control 82.5±3.7%) turned out to be 29.5±2.8%.
